Measurements from paper PMC4919791, “Effect of curcumin analogs onα-synuclein aggregation and cytotoxicity” (Scientific Reports, 2016).

Legend:
α-Syn oligomers = molecular target: T1, α-Syn oligomers (Homo sapiens, UniProt P37840); assay: Binding affinity to α-Syn oligomers by curcumin analog fluorescence; details: for Kd: compound fluorescence, read-out: dissociation constant (Kd) for α-Syn oligomers; for affinity to oligomers compared to fibrils: comparison of Kd for fibrils and oligomers
T1 construct: made in house; host or cells: Escherichia coli BL21
Description: Immediately after incubation, fluorescence study was performed (for the excitation and emission ranges for each compounds, see Fig. S1). Experiments were performed using FluoroMax-4 spectrofluorometer (HORIBA JobinYvon) with excitation and emission slit widths of 5 nm.
The data were analyzed in Graphpad Prism software according to established method as used previously.

α-Syn [1] = molecular target: T2, α-Syn (Homo sapiens, UniProt P37840); assay: TEM of α-Syn aggregates formed in presence of analogs; assay type: biochemical
T2 construct: made in house; host or cells: Escherichia coli BL21
Description: (§1) Subsequently, we examined the effect of these analogs on α-Syn oligomerization by time dependent static light scattering experiment. […] After aggregation, TEM study was done to determine the effects of these analogs on the morphology of the resultant aggregates.
(§2) The samples were then washed thrice with autoclaved MQ. The samples were then stained with 10 μl of uranyl formate 1% (w/v) and incubated in dark for 10 min. The EM image of each sample was acquired at 120 kV with magnifications in the range of 26,000X and 43,000X using a transmission electron microscope (TECNAI12 D312 FEI, Netherlands).

preformed α-Syn fibrils [2] = molecular target: T3, preformed α-Syn fibrils (Homo sapiens, UniProt P37840); assay: LDH cytotoxicity assay of preformed α-Syn fibrils incubated with curcumin analogs; assay type: cell-based; details: fibrils incubated with analog 48 h; SH-SY5Y cells
T3 construct: made in house; host or cells: Escherichia coli BL21
Description: The concentration of the fibrils was determined by subtraction of supernatant concentration from the original concentration of α-Syn kept for fibrillation.
The percent LDH release was plotted as difference in the absorbance value of 490 nm and 690 nm, considering 100% release for the TritonX-100 treated cells.

preformed α-Syn fibrils [3] = molecular target: T3, preformed α-Syn fibrils; assay: Nile red binding assay on preformed α-Syn fibrils; assay type: biochemical; details: fibrils incubated with analog 48 h
Description: Stock solution of NR was prepared in DMSO (1 mM). […] Similar experimental protocol was used for NR binding to oligomers. FluoroMax-4 spectrofluorometer (HORIBA JobinYvon) was used with excitation and emission slit widths of 5 nm. The maximum NR fluorescence obtained at ~630 nm was used for plotting bar diagrams.

[4] = Stability of curcumin analogs by time-dependent intrinsic fluorescence; assay type: physicochemical; details: 20 mM MES buffer pH 6.0, 0.01% NaN3, 37 °C
Description: 1μl of this DMSO-stock solution was transferred to 2 ml microfuge tube and 1 ml of 20 mM MES buffer (pH 6.0, 0.01% NaN3) was added to it and mixed immediately by vortexing. These solutions were incubated at 37 °C and their respective fluorescence was taken at certain time intervals. The fluorescence was monitored by placing the 200 μl of the incubated solution in 0.1 cm path-length quartz cuvette (Hellma, Forest Hills, NY) and the spectra were acquired by using FluoroMax-4 spectrofluorometer (HORIBA JobinYvon) instrument with excitation and emission slit widths of 5 nm and 10 nm respectively. The fluorescence intensity maxima for each sample were plotted against time of incubation and fitted in exponential decay 1 in the Origin 8.0 software according to manufacture’s protocol (Fig. 2A).

α-Syn [5] = molecular target: T2, α-Syn; assay: α-Syn aggregation kinetics by compound fluorescence; assay type: biochemical; details: in presence of analog
Description: ThT fluorescence was used to monitor the aggregation kinetics of α-Syn only as a control.
as §1
The α-Syn amyloid aggregation was started with LMW α-Syn of concentration ~300 μM in 1.5 ml microfuge tube in 20 mM MES buffer, pH 6.0, with 0.01% NaN3. […] The microfuge tubes with protein solutions were placed into Echo-Therm model RT11 vertical rotor (Torrey Pines Scientific, USA) with a speed of 50 rpm, at 37 °C inside an incubator.
The experiments were performed in FluoroMax-4 spectrofluorometer (HORIBA JobinYvon) with excitation and emission slit widths of 5 nm. Fluorescence was done in 20 mM MES buffer (pH 6.0, 0.01% NaN3).

α-Syn fibrils = molecular target: T4, α-Syn fibrils (Homo sapiens, UniProt P37840); assay: Binding affinity to α-Syn fibrils by curcumin analog fluorescence; details: for binding with preformed α-Syn fibrils: compound fluorescence
T4 construct: made in house; host or cells: Escherichia coli BL21
Description: To estimate the comparative binding affinity of curcumin analogs to the α-Syn fibrils and oligomers, curcumin fluorescence assay was performed for each analog. For binding study with fibrils, 10 μM of α-Syn fibrils were incubated in presence of varying concentration of curcumin and its analogs (0.25 μM to 30 μM) for 30 min at RT in dark and then fluorescence spectra were recorded. The normalized fluorescence intensity of different concentrations of curcumin/analogs at their corresponding λmax was plotted to obtain their respective saturation plots (Figs 6A and S7). From the saturation plot, dissociation constant (Kd) was calculated (see method section).
The binding of curcumin/analogs to α-Syn fibrils were determined based on change in fluorescence intensity. For this study, 10 μM α-Syn fibrils were incubated in presence and absence of varying concentration of curcumin/analogs (0.25 μM to 30 μM) for 30 min at RT in dark. Immediately after incubation, fluorescence study was performed (for the excitation and emission ranges for each compounds, see Fig. S1). Experiments were performed using FluoroMax-4 spectrofluorometer (HORIBA JobinYvon) with excitation and emission slit widths of 5 nm. The maximum fluorescence intensity for curcumin/analogs was normalized with respect to that of the lowest concentration of each analog. The normalized fluorescence intensity was plotted against increasing concentration of curcumin/analogs and the dissociation constant was determined using the equation
where, “ΔF” is the change in the fluorescence intensity of curcumin/analogs, “ΔFmax” is the change in the fluorescence intensity at saturation point and “L”is the concentration of curcumin/analogs. The data were analyzed in Graphpad Prism software according to established method as used previously. Similarly, the dissociation constant of curcumin and its analogs with preformed α-Syn oligomers and monomers (obtained from SEC) were also determined.

[6] = molecular target: T5, preformed α-Syn amyloid fibrils (Homo sapiens, UniProt P37840); assay: TEM of preformed α-Syn fibrils with analogs; assay type: biochemical; details: after 48 h incubation with analog
T5 construct: made in house; host or cells: Escherichia coli BL21
Description: as §2

| SMILES | Kd (α-Syn oligomers) [µM] | morphology of α-Syn aggregates formed in presence of analog (TEM) (α-Syn [1]) | effect on cell death by preformed α-Syn fibrils, LDH (preformed α-Syn fibrils [2]) | Nile red fluorescence of preformed α-Syn fibrils (exposed hydrophobic surface) (preformed α-Syn fibrils [3]) | relative stability compared with curcumin (slope of normalized fluorescence versus time) [4] | effect on rate/kinetics of α-Syn aggregation (α-Syn [5]) | Kd (α-Syn fibrils; 10 μM fibrils, 0.25–30 μM analog, 30 min RT, read-out: dissociation constant (Kd) for α-Syn fibrils) [µM] | binding with preformed α-Syn fibrils (α-Syn fibrils) | average fibril thickness of fibrils formed in presence of analog (α-Syn [1]) | fibril morphology/thickness of preformed α-Syn fibrils (TEM, words) [6] | affinity to oligomers compared to fibrils (α-Syn oligomers) |
| --- | --- | --- | --- | --- | --- | --- | --- | --- | --- | --- | --- |
| COc1ccc(/C=C/C(=O)CC(=O)/C=C/c2ccc(OC)cc2OC)c(OC)c1 [C4] | 16.5 ± 2.63 |  |  |  |  |  |  |  |  |  |  |
| COc1ccc(OC)c(/C=C/C(=O)CC(=O)/C=C/c2cc(OC)ccc2OC)c1 [C5] |  | fibrils with shorter length | decrease in cell death | less NR fluorescence for fibrils as compared to curcumin | relatively more stable than curcumin | increases the rate of α-Syn aggregation |  |  |  |  |  |
| O=C(/C=C/c1ccccc1)CC(=O)/C=C/c1ccccc1 [C7] |  | fibrils with shorter length | decrease in cell death |  | relatively more stable than curcumin |  | 13.2 ± 2.29 | very weak binding | more in comparison to fibrils formed in presence of other analogs | thinner fibrils |  |
| O=C(/C=C/c1cccs1)CC(=O)/C=C/c1cccs1 [C8] | 1.46 ± 0.2 |  | decrease in cell death |  | relatively more stable than curcumin | less significant effect |  |  |  | thinner fibrils | higher binding affinity to oligomers as compared to fibrils |
| O=C(/C=C/c1cccnc1)CC(=O)/C=C/c1cccnc1 [C9] |  | fibrils with shorter length |  |  | relatively more stable than curcumin | less significant effect |  | did not show any significant binding |  | thinner fibrils |  |
| COc1ccc(/C=C/C(=O)CC(=O)/C=C/c2ccc(OC)cc2)cc1 [C10] |  | fibrils with shorter length | decrease in cell death |  | relatively more stable than curcumin |  |  |  |  |  | higher binding affinity to oligomers as compared to fibrils |
